# Reference: paper PMC4290489, “Identification of multiple salicylic acid-binding proteins using two high throughput screens” (Frontiers in Plant Science, 2015)
# Legend:
# Type in all cases: binding
# [1] = target: T1, GPX2 (Arabidopsis thaliana, UniProt O04922); assay: UV photo-crosslinking, anti-SA immunoblot; conditions: 50 uM 4AzSA, PBS, on ice, 254 nm UV; covalent; competed by SA
# T1 construct: N-terminal His6 (pET28a), from E. coli
# T1 sequence (O04922 1-169): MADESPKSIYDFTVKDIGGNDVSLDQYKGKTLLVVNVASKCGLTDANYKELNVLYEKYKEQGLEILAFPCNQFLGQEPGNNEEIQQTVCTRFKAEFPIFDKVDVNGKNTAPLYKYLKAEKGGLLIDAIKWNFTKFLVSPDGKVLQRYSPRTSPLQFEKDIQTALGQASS
# [2] = target: T2, UGE2 (Arabidopsis thaliana, UniProt Q9T0A7); assay: UV photo-crosslinking, anti-SA immunoblot; conditions: 50 uM 4AzSA, PBS, on ice, 254 nm UV; covalent; competed by SA
# T2 construct: N-terminal His6 (pET28a), from E. coli
# T2 sequence (Q9T0A7 1-350): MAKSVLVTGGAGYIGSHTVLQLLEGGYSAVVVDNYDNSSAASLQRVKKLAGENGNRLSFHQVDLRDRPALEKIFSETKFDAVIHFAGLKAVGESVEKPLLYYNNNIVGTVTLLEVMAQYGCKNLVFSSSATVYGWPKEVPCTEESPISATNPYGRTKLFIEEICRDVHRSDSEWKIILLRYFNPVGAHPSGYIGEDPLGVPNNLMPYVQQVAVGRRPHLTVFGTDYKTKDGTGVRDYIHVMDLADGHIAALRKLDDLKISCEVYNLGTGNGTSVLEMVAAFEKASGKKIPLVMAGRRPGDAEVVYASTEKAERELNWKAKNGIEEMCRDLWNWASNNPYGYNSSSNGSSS
# [3] = target: T3, HPR2 (Arabidopsis thaliana, UniProt Q9CA90); assay: UV photo-crosslinking, anti-SA immunoblot; conditions: 50 uM 4AzSA, PBS, on ice, 254 nm UV; covalent; competed by SA
# T3 construct: N-terminal His6 (pET28a), from E. coli
# T3 sequence (Q9CA90 1-313): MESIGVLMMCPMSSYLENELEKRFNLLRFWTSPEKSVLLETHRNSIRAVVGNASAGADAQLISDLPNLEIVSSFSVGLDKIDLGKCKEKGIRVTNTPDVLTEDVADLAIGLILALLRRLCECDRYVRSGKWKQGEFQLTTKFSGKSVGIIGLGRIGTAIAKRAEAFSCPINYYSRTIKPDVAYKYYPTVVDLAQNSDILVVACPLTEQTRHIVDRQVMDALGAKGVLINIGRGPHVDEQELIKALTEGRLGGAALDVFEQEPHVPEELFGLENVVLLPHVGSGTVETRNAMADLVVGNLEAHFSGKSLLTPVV
# [4] = target: T4, LOX2 (Arabidopsis thaliana, UniProt P38418); assay: UV photo-crosslinking, anti-SA immunoblot; conditions: 50 uM 4AzSA, PBS, on ice, 254 nm UV; covalent; competed by SA
# T4 construct: N-terminal His6 (pET28a), from E. coli
# T4 sequence (P38418 57-896): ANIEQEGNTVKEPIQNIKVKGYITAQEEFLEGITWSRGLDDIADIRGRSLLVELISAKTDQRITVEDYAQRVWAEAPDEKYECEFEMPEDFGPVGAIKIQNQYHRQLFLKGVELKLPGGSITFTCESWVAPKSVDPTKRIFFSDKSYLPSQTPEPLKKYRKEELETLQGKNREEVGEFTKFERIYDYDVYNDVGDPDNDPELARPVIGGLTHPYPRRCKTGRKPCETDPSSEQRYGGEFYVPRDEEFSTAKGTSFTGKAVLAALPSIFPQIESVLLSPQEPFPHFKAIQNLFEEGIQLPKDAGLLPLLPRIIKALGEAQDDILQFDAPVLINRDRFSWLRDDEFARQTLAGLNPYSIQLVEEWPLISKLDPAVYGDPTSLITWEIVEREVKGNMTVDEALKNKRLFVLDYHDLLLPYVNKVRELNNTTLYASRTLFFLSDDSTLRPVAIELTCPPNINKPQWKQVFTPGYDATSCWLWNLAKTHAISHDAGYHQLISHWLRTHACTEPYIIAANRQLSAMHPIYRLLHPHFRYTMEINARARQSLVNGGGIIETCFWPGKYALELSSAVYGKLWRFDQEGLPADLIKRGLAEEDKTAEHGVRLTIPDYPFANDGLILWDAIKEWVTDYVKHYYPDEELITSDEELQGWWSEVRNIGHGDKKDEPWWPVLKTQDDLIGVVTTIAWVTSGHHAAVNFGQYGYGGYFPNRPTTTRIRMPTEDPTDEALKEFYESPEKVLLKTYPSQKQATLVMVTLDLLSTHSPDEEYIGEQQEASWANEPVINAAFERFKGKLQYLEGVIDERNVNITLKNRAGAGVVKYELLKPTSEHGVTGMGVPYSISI
# [5] = target: T5, GSR2 (Arabidopsis thaliana, UniProt Q8LCE1); assay: UV photo-crosslinking, anti-SA immunoblot; conditions: 50 uM 4AzSA, PBS, on ice, 254 nm UV; covalent; competed by SA
# T5 construct: gene GLN1-2; N-terminal His6 (pET28a), from E. coli
# T5 sequence (Q8LCE1 1-356): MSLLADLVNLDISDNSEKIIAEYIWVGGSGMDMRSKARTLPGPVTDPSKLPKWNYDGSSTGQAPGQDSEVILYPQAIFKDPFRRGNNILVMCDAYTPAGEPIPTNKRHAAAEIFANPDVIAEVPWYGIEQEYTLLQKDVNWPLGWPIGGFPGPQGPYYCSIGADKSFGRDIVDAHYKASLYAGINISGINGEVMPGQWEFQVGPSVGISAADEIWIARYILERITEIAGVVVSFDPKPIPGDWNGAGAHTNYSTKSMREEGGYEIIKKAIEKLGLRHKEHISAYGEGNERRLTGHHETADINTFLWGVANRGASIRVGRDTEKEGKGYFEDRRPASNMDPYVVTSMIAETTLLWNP
# [6] = target: T2, UGE2; assay: SPR competition on 3AESA chip; competition of 4AzSA photo-crosslinking; conditions: 1-5 mM SA, HBS-EP pH 7.4 (SPR); competes with 3AESA and 4AzSA
# [7] = target: T5, GSR2; assay: as above; conditions: 1-5 mM SA, HBS-EP pH 7.4 (SPR); competes with 3AESA and 4AzSA
# [8] = target: T4, LOX2; assay: as above; conditions: 1-5 mM SA, HBS-EP pH 7.4 (SPR); competes with 3AESA and 4AzSA
# [9] = target: T6, RBCS1A (Arabidopsis thaliana, UniProt P10795); assay: as above; conditions: 1-5 mM SA, HBS-EP pH 7.4 (SPR); competes with 3AESA and 4AzSA
# T6 construct: gene RBCS-1A; small subunit alone, N-terminal His6 (pET28a), from E. coli
Compound,"UV photo-crosslinking, anti-SA immunoblot [1]","UV photo-crosslinking, anti-SA immunoblot [2]","UV photo-crosslinking, anti-SA immunoblot [3]","UV photo-crosslinking, anti-SA immunoblot [4]","UV photo-crosslinking, anti-SA immunoblot [5]",SPR competition on 3AESA chip; competition of 4AzSA photo-crosslinking [6],SPR competition on 3AESA chip; competition of 4AzSA photo-crosslinking [7],SPR competition on 3AESA chip; competition of 4AzSA photo-crosslinking [8],SPR competition on 3AESA chip; competition of 4AzSA photo-crosslinking [9]
[N-]=[N+]=Nc1ccc(C(=O)O)c(O)c1 [4AzSA],"bound 3AESA and crosslinked to 4AzSA in an SA-inhibitable manner, indicating that they are SABPs","bound 3AESA and crosslinked to 4AzSA in an SA-inhibitable manner, indicating that they are SABPs","bound 3AESA and crosslinked to 4AzSA in an SA-inhibitable manner, indicating that they are SABPs",These five proteins also bound and crosslinked to 4AzSA,"bound 3AESA and crosslinked to 4AzSA in an SA-inhibitable manner, indicating that they are SABPs",–,–,–,–
O=C(O)c1ccccc1O [SA],–,–,–,–,–,"bound 3AESA and crosslinked to 4AzSA in an SA-inhibitable manner, indicating that they are SABPs","bound 3AESA and crosslinked to 4AzSA in an SA-inhibitable manner, indicating that they are SABPs","SA competes with 3AESA and 4AzSA for binding by TRX-m1, TPPII, SHM4, and LOX2","bound 3AESA and crosslinked to 4AzSA in an SA-inhibitable manner, indicating that they are SABPs"
